Values after ≈ are worked out from the molar mass of the structure shown. Where two headings read alike, the source gives them in different places.
Columns and labels:
[1] = test system: S. aureus ATCC25923; experiment: MIC, resazurin microtiter assay; assay type: cell-based; conditions: Staphylococcus aureus, ATCC25923; Mueller Hinton II; read-out: MIC S. aureus ATCC25923
[2] = test system: M. tuberculosis H37Rv mc^26206; experiment: microbe, parasite or virus in culture; assay type: cell-based; conditions: TD50 in THP-1 cells
[3] = In vivo acute toxicity assay (Maximum Tolerated Dose); set-up: species or system Balb/C mice; conditions: 100, 200 and 300 mg/kg for 3 consecutive days of dosing, gavage, mice
Method: 6-8 week old Balb/C female mice were ordered from Charles River. Mice were rested one to two weeks before dosing. For each dose of compound, 3 mice were utilized. […] Compound was given twice per day for 3 consecutive days by gavage, at 100 μl/mouse. Compounds were prepared the day before or the day of dosing and stored at 4° C. until dosing. The time of dosing was recorded for each mouse. Observations were recorded immediately, at 10 min, 1 hour, 2 hours, 4 hours, and 24 hours after dosing. […] Mice were dosed for three days and on the fourth day mice were observed twice daily for two days, then once daily for five days.
As an initial in vivo study, the safety of compounds and preliminary pharmacokinetics was assessed in an acute toxicity mouse model (Maximum Tolerated Dose assay, MTD) to evaluate any potential adverse effects and determine a safe dose for mouse efficacy studies. Compounds were tested to ensure safe use in healthy mice prior to any further in vivo testing. […] Novel compounds were generally administered to mice at 40, 75 and 100 mg/kg in a tested formulation, administered on three consecutive days, 3 mice per dose group, in the chosen formulation. […] Mice were observed 10 min, 1, 2, 4 hours after dosing and then daily afterwards. During the observations, humane handling practices and animal welfare regulations were strictly followed. […]

[4] = test system: M. massiliense CIP 108297; experiment: MIC, resazurin microtiter assay; assay type: cell-based; conditions: Mycobacteroides abscessus, CIP108297, Mueller Hinton II; read-out: MIC M. massiliense CIP 108297
[5] = test system: M. abscessus 103; experiment: MIC/MBC by microbroth dilution (MH or 7H9 broth); assay type: cell-based, M. abscessus subsp. bolletii; conditions: Mycobacteroides abscessus, 103
[6] = test system: P. aeruginosa PAO-1; experiment: MIC, resazurin microtiter assay; assay type: cell-based, Pseudomonas aeruginosa; conditions: Mueller Hinton II
[7] = test system: M. intracellulare 1956; experiment: MIC, resazurin microtiter assay; assay type: cell-based; conditions: Mueller Hinton II; read-out: MIC M. avium Intracellulare 1956
[8] = test system: M. smegmatis mc^2155; experiment: MIC, resazurin microtiter assay; assay type: cell-based; conditions: Mycolicibacterium smegmatis, MC^2155, 7H9-ADC-0.05% Tween 80; read-out: MIC M. smeg. mc^2155
[9] = test system: THP-1 cells; experiment: Cytotoxicity assay, THP-1 cell viability (CellTiter-Glo); assay type: cell-based, human; conditions: 3 days
Method: The cytotoxicity of compounds was determined by measuring THP-1 cell viability after 3 days in the presence of test compounds. Compounds were prepared as 10-point serial dilutions in DMSO. The highest concentration of compound tested was 50 μM where compounds were soluble in DMSO at 10 mM. THP-1 cells were cultured in complete RPMI and differentiated into macrophage-like cells using 80 nM PMA overnight at 37° C., 5% CO2. Cells were inoculated into assay plates and cultured for 24 h before compound dilutions were added to a final DMSO concentration of 0.5%. Each run included staurosporine as a control. Assay plates were incubated for 3 days at 37° C., 5% CO2, growth was measured using the CellTiter-Glo® Luminescent Cell Viability Assay (Promega) which uses ATP as an indicator of cell viability. Relative luminescent units (RLU) were measured using a Biotek Synergy 4 plate reader. The dose response curve was fitted using the Levenberg-Marquardt algorithm.

[10] = test system: M. abscessus ATCC 19977; experiment: MIC, resazurin microtiter assay; assay type: cell-based; conditions: Mycobacteroides abscessus, ATCC19977; Mueller Hinton II; read-out: MIC M. abscessus ATCC 19977
[11] = test system: M. abscessus 103; conditions: mouse, in vivo, 300 mg/kg
[12] = test system: M. chelonae ATCC 35752; experiment: MIC, resazurin microtiter assay; assay type: cell-based; conditions: Mycobacteroides chelonae, ATCC35752, Mueller Hinton II; read-out: MIC M. chelonae ATCC 35752
[13] = test system: M. xenopi WT; experiment: MIC, resazurin microtiter assay; assay type: cell-based; conditions: Mycobacterium xenopi, Mueller Hinton II; read-out: MIC M. xenopi WT
[14] = Dose response pharmacokinetics, plasma concentration by LC-MS/MS; assay type: in vivo, BALB/c mice; conditions: single oral dose 100 and 200 mg kg^-1, 2 and 4 h, mice
Method: P.O. dosing at 100, 200 and 300 mg kg^−1 was administered; after administration, blood was collected at 2 and 4 hour time points for quantification. Plasma concentration of the compounds 5 and 25 was determined using liquid chromatography tandem mass spectrometry. Data are presented as mean±SD.
Female BALB/c mice were given a dose of compounds 5 or 25 at 100, 200 and 300 mg kg′ by oral gavage in a volume of 0.2 mL. At 2 and 4 hours after compound administration, animals were euthanized and cardiac blood (approximately 0.7 mL) was collected. Plasma was separated using centrifugation at 12,000 g for 20 min at 4° C. and stored at […]. Concentrations of compounds 5 and 25 in plasma were analyzed with LC-tandem MS (LC-MS/MS, AB SCIEX QTRAP 5500 system) with warfarin as internal standard. MS detection of mass transitions 295.2/135.2 (Compound 5), 299.2/146.1 (Compound 25) and 309.1/163.0 (Warfarin) was carried out. Concentration calculation was performed with MultiQuant Software (Version 2.1, AB SCIEX). The pharmacokinetic profile of the test compound was analyzed from plasma concentration-time data after oral administration.

[15] = test system: M. bolletii ATCC 14472; experiment: MIC, resazurin microtiter assay; assay type: cell-based; conditions: Mycobacteroides abscessus, ATCC14472, Mueller Hinton II; read-out: MIC M. bolletii ATCC 14472
[16] = test system: M. massiliense CRM 0019; experiment: MIC, resazurin microtiter assay; assay type: cell-based; conditions: Mycobacteroides abscessus, CRM0019, Mueller Hinton II; read-out: MIC M. massiliense CRM 0019
[17] = test system: M. abscessus 1513; experiment: MIC/MBC by microbroth dilution (MH or 7H9 broth); assay type: cell-based, M. abscessus subsp. abscessus; conditions: Mycobacteroides abscessus, 1513
[18] = test system: M. massiliense strain 1513; experiment: Metabolic labeling and mycolic acid analysis; conditions: 4x and 10x MIC, 16 hr, [1,2-14C]acetate labeling, TLC
Method: Cultures of M. massiliense 1513 grown to mid log-phase in Mueller-Hinton II broth were incubated with different concentrations of inhibitors for 16 hr at 37° C. with shaking. 0.5 μCi/mL [1,2-^14C]acetic acid (specific activity, 52 Ci/mol, PerkinElmer Inc.) was added at the same time as the inhibitors. Total lipids and cell wall-bound mycolic acid methyl esters were prepared from treated and untreated cells and analyzed by TLC as described in Grzegorzewicz et al, Nature Chemical Biology, 2012, 8:334+341.

[19] = test system: panel of mycobacteria; experiment: MIC against a panel of mycobacteria (summary ranges); assay type: cell-based; conditions: M. avium and M. xenopi strains of Table 3
[20] = test system: M. abscessus 103; experiment: Acute SCID mouse infection efficacy model; conditions: SCID mice i.v. infected with M. abscessus 103; compounds 300 mg/kg PO in 20% cyclodextrin, AMI 150 mg/kg SQ, once daily 8 days
[21] = test system: M. abscessus DCI #21; experiment: MIC, resazurin microtiter assay; assay type: cell-based; conditions: Mycobacteroides abscessus; Mueller Hinton II; read-out: MIC M. abscessus DCI #21
[22] = test system: mycobacteria; experiment: organism not typed; assay type: cell-based; conditions: lowest concentration reducing CFU by 90% relative to the inoculum; strain not stated; read-out: MBC90

With `Cc1cc(C)c2cc(C(=O)NC3CCCCCCC3)[nH]c2c1` [Compound 25, N-cyclooctyl-4,6-dimethyl-1H-indole-2-carboxamide] as the compound, how does the MIC [1] read?
Its MIC is greater than 160 µg/mL.

What about the “Selectivity Index (TD50/MIC) M. tb H37Rv” value [2] of the same compound?
Its value is greater than 764.

And the “Tolerability (acute toxicity, MTD)” value [3]?
Its value is “well tolerated”.

And the MIC [4]?
The MIC was 0.031 µg/mL (≈ 0.104 µM).

And the MBC ([5]; MH broth, read-out: MBC99 M. abscessus subsp. bolletii 103)?
Its MBC is 64 µg/mL (≈ 214 µM).

What about the MIC ([5]; read-out: MIC M. abscessus 103, 7H9 Broth) of the same compound?
Its MIC is greater than 64 µg/mL.

What about the MIC ([5]; read-out: MIC M. abscessus 103, MH Broth) of the same compound?
Its MIC is 16 µg/mL (≈ 53.6 µM).

What about the “MIC P. aeruginosa PAO-1” value [6] of the same compound?
Its value is “inactive”.

What about the MIC ([6]; Pseudomonas aeruginosa, PAO1, read-out: MIC P. aeruginosa PAO-1) of the same compound?
Its MIC is greater than 160 µg/mL.

What about the MIC [7] of the same compound?
The MIC was 1 µg/mL (≈ 3.35 µM).

What about the MIC [8] of the same compound?
The MIC was 0.313 to 0.625 µg/mL (≈ 1.05 to 2.09 µM).

And the TD50 [9]?
Its TD50 is greater than 14.9 µg/mL.

What about the MIC [10] of the same compound?
The MIC was 0.063 µg/mL (≈ 0.211 µM).

And the “Survival until the Day 12 endpoint” value [11]?
The value was “all animals survived”.

And the Weight loss [11]?
Its Weight loss is “didn't demonstrate any significant weight loss”.

What about the MIC [12] of the same compound?
Its MIC is 0.063 µg/mL (≈ 0.211 µM).

And the MIC [13]?
The MIC was 0.25 µg/mL (≈ 0.838 µM).

And the “Blood concentration compared to compound 5” value [14]?
Its value is “lower blood concentration”.

What about the MIC [15] of the same compound?
The MIC was 3.9 ng/mL (≈ 0.0131 µM).

And the MIC [16]?
Its MIC is 7.8 ng/mL (≈ 0.0261 µM).

What about the MBC ([17]; MH broth, read-out: MBC99 M. abscessus subsp. abscessus 1513) of the same compound?
The MBC was 64 µg/mL (≈ 214 µM).

And the MIC ([17]; read-out: MIC M. abscessus 1513, 7H9 Broth)?
Its MIC is greater than 64 µg/mL.

What about the MIC ([17]; read-out: MIC M. abscessus 1513, MH Broth) of the same compound?
The MIC was 16 µg/mL (≈ 53.6 µM).

And the “TMM build-up and mycolic acid transfer onto arabinogalactan and TDM” value [18]?
The value was “concentration-dependent build-up of TMM”.

What about the “MIC range in MAC panel” value [19] of the same compound?
The value was 0.25 to 1 µg/mL.

And the “log10 CFU liver counts on day 12” value [20]?
The value was 4.90±0.49 log10 CFU.

And the “log10 CFU spleen counts on day 12” value [20]?
Its value is 2.91±0.45 log10 CFU.

What about the MIC [21] of the same compound?
Its MIC is 7.8 ng/mL (≈ 0.0261 µM).

And the MBC [22]?
The MBC was 0.015 µg/mL (≈ 0.0503 µM).
